Values of other authors as cited in patent US6346511B1, “Pharmaceutical composition comprising cyclosporin” (Panacea Biotec Limited, priority 1997, dated 2002).

Tested on: normal epithelial tissue and Peyer's patch tissue of guinea pigs
Conditions: in vitro, compared to the commercially available drinking solution

## Choleic acid
  factor by which absorption of Cyclosporine was raised: 5-6
